{"source": "patent EP4652998A1", "about": "“TREATMENT OF RECEPTOR-INTERACTING PROTEIN KINASE 1- MEDIATED DISEASE WITH ECLITASERTIB” (Technische Universität München, priority 2024, dated 2025)", "key": {"[1]": {"system": "keratinocyte skin equivalents", "test": "Three-dimensional keratinocyte skin equivalents stimulated with LP/LE-TCS, secreted cytokines in supernatant", "type": "cell-based, human", "settings": "100 nM inhibitor, 72 h, relative concentration to stimulated control (ZS + LP/LE-TCS) without inhibitor, n=3", "experimental": "Three-dimensional keratinocyte skin equivalents were generated as described before Arch Dermatol Res 296, 203-211 (2004)). Briefly, 3.0E^5 primary human keratinocytes were seeded in 500 µL keratinocyte medium with 1.5 mM CaCh into the insert and placed in a well containing the same medium. After two days, keratinocytes were exposed to the air-liquid interface and medium in the surrounding well was supplemented with 50 µg/mL Vitamin C. Nine days after airlift, the skin equivalents were pre-treated for 1 h with RIPK1 inhibitor (100 nM, SANOFI) followed by a stimulation with supernatant mix of lesional T cells from LP and LE patients (1: 10 diluted) in the presence of zVAD (20 µM, Cell Signaling, #60332), SMAC (1 µM, LC Laboratories, #B-9135) and the RIPK1 inhibitor for 72 h. Afterwards, membranes of the fixated skin equivalents were cut out with a scalpel, divided into two pieces, formalin fixed and embedded in paraffin. Primary human lesional T cells were isolated from freshly taken skin biopsies of LP (n=5) and LE (n=3) patients (patient characteristics see Table S 1) by emigration towards an IL-2 gradient followed by expansion with α-CD3/α-CD28 stimulation as described previously (J Invest Dermatol, (2018), Case Rep Pathol 2021, 8819560 (2021)). Supernatants of expanded lesional T cells were generated by 3-day stimulation with 0.75 µg/mL α-CD3 (pre-coated, BD Biosciences) and 0.75 µg/mL soluble α-CD28 (BD Biosciences). A mixture of all 8 lesional supernatants at equimolar ratio was used for stimulation of 3D keratinocyte skin equivalents. Concentrations of key cytokines in the supernatant mix of lesional T cells were determined by a multiplex ELISA (Biorad) and listed in Table S4. Table S4. Composition of lesional LP/LE-TCS mix. Hu = human. Cell free supernatants derived from keratinocyte stimulation experiments or lesional TCS from LP/LE patients were analysed for 27 cytokines, chemokines and growth factors using the Bio-Plex Pro Human Cytokine 27-plex Assay (Bio-Rad Laboratories, Hercules, Calif) according to the manufacturer's recommendation."}, "[2]": {"system": "primary human keratinocytes", "test": "Multiplex ELISA of cytokines released by keratinocytes after cell death induction", "type": "cell-based", "settings": "24 h", "experimental": "(§1) Primary human keratinocytes were obtained from healthy donors by suction blister as reported before (J Allergy Clin Immunol 141, 1320-1333 e1311 (2018)) and donor characteristics are listed in Table S3. Epidermal keratinocytes were cultured in keratinocyte medium (DermaLife Basal Medium supplemented with DermaLife K LifeFactor Kit (Lifeline Cell Technology, LL-0007)) at 37 °C, 5 % CO2 and second- to third-passages were used. At 70-80 % of confluence, keratinocytes were pre-incubated for 1 h with RIPK1 inhibitor (100 nM or as indicated, SANOFI) followed by stimulation with rhIFN-γ (100 ng/ml or as indicated, R&D, #285-IF-100/CF) and rhTNF-α (100 ng/ml or as indicated, R&D, #210_TA/CF) in the presence of zVAD (20 µM, Cell Signaling, #60332), SMAC (1 µM, LC Laboratories, #B-9135) and the RIPK1 inhibitor for 24 h in keratinocyte medium without hydrocortisone.\nCell free supernatants derived from keratinocyte stimulation experiments or lesional TCS from LP/LE patients were analysed for 27 cytokines, chemokines and growth factors using the Bio-Plex Pro Human Cytokine 27-plex Assay (Bio-Rad Laboratories, Hercules, Calif) according to the manufacturer's recommendation."}, "[3]": {"system": "keratinocyte skin equivalents", "test": "Three-dimensional keratinocyte skin equivalents stimulated with LP/LE-TCS, histology and epidermal thickness", "type": "cell-based, human", "settings": "100 nM inhibitor, LP/LE-TCS 1:10 + zVAD + SMAC, 72 h", "experimental": "Three-dimensional keratinocyte skin equivalents were generated as described before Arch Dermatol Res 296, 203-211 (2004)). Briefly, 3.0E^5 primary human keratinocytes were seeded in 500 µL keratinocyte medium with 1.5 mM CaCh into the insert and placed in a well containing the same medium. After two days, keratinocytes were exposed to the air-liquid interface and medium in the surrounding well was supplemented with 50 µg/mL Vitamin C. Nine days after airlift, the skin equivalents were pre-treated for 1 h with RIPK1 inhibitor (100 nM, SANOFI) followed by a stimulation with supernatant mix of lesional T cells from LP and LE patients (1: 10 diluted) in the presence of zVAD (20 µM, Cell Signaling, #60332), SMAC (1 µM, LC Laboratories, #B-9135) and the RIPK1 inhibitor for 72 h. Afterwards, membranes of the fixated skin equivalents were cut out with a scalpel, divided into two pieces, formalin fixed and embedded in paraffin. […] Concentrations of key cytokines in the supernatant mix of lesional T cells were determined by a multiplex ELISA (Biorad) and listed in Table S4. […]"}, "[4]": {"system": "primary human keratinocytes", "test": "Cell viability assay (MTS/PMS) after cell death induction with IFN-γ + TNF-α + zVAD + SMAC", "type": "cell-based", "settings": "4 nM RIPK1 inhibitor (or higher), zVAD [20 µM] and SMAC [1 µM], 24 h, normalized to zVAD + SMAC (100 %), stimulated control 43,6 % ± 7.6 %, n=4", "experimental": "as §1\nCell viability of cultured keratinocytes was determined using CellTiter 96® Aqueous NonRadioactive Cell Proliferation Assay (Promega, G5421) according to manufacturer's instructions. MTS/PMS reagent was used 1:6 diluted in keratinocyte medium without hydrocortisone and incubated for 1 h. Afterwards, supernatants were analysed by ELISA at 490 nm minus 700 nm as reference. To calculate the percentage of cell viability to ZS extinction values were normalized to the control stimulation zVAD + SMAC (100 %)."}, "RIPK1": {"target": "T1, RIPK1 (Homo sapiens, UniProt Q13546)", "T1 construct": "Detection of RIPK1-pS 166 in WB analysis of primary human keratinocytes; endogenous in cells; host or cells: primary human keratinocytes from healthy donors (suction blister)", "T1 sequence (Q13546 1-671)": "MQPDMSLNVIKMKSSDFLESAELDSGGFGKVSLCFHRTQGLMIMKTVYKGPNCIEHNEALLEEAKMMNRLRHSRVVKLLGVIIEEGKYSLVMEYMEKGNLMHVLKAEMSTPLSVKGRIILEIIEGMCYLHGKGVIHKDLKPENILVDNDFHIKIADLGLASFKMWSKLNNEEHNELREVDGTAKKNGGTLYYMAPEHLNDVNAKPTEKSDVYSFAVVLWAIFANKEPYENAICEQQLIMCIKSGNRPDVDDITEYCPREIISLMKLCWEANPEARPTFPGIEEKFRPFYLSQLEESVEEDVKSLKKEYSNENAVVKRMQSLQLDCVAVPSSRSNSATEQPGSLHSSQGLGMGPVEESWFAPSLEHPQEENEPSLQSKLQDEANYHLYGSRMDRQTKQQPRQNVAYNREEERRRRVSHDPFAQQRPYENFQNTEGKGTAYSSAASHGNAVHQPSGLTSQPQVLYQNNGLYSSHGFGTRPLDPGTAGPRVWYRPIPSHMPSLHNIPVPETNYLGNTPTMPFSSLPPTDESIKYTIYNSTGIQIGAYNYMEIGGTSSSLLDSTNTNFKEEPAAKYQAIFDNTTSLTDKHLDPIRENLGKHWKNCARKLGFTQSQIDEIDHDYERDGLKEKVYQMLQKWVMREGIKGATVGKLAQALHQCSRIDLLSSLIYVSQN", "test": "Western blot of RIPK1-pS166 autophosphorylation in keratinocytes", "type": "cell-based", "settings": "RIPK1-pS166, 100 nM inhibitor, 6 h after IFN-γ [10 ng/ml] + TNF-α [10 ng/ml] + zVAD [20 µM]", "experimental": "Keratinocytes were lysed in RIPA lysis buffer (Santa Cruz) supplemented with 1 mM sodium orthovanadate, 2mM PMSF and proteinase inhibitor cocktail (1:70) according to the manufacturer's instructions."}, "C57BL/6 mice": {"system": "C57BL/6 mice", "test": "Tnf-α-driven systemic inflammatory response syndrome (SIRS) model, hypothermia", "type": "in vivo", "settings": "15 min after Tnf-α (0.3 mg/kg)/zVAD i.v., 5 h, Tnf-α/zVAD alone -9.3 ± 0.3, vehicle -1.9 ± 0.5", "experimental": "TNF-α driven systemic inflammatory response syndrome (SIRS) model was performed as described before (Immunity 35, 908-918 (2011)). Briefly, male C57BL/6 mice (n=6 per group) were injected into the tail vain with a volume of 125 µl per 25 g mouse of either vehicle (15 % PEG 200; 8.4 % DMSO; 0.6 % NaCl) or a mixture of murine Tnf-α (0.3 mg/kg) and zVAD (6.7 mg/kg) prepared in vehicle. No Tnf-α/zVAD was administered to the vehicle group. 15 min after induction of hypothermia by application of Tnf-α/zVAD mix, animals were orally dosed with RIPK1 inhibitor or GSK`963. Body temperature was monitored every hour using radio-frequency identification (RFID) technology with IPTT-300 transponders that were injected subcutaneously 2-3 days before initiation of the experiment.\nNext, the effects of RIPK1 inhibition were assessed in vivo using a murine Tnf-α-driven systemic inflammatory response syndrome model (Immunity 35, 908-918 (2011)). C57BL/6 mice (n=6 per group) were injected of either vehicle (15 % PEG 200; 8.4 % DMSO; 0.6 % NaCL 0.9 %) or a mixture of murine Tnf-α (0.3 mg/kg) and zVAD (16.7 mg/kg) into the tail vein. 15 minutes after induction of hypothermia, animals were orally dosed with the RIPK1 inhibitors SAR443122 or GSK`963, a previously described RIPK1 inhibitor ( Cell Death Discov 1, 15009 (2015)). Body temperature was monitored up to 5 hours using radio-frequency identification technology with IPTT-300 transponders that were injected subcutaneously 2-3 days before initiation of the experiment (Fig. 4A). Animals receiving the Tnf-α/zVAD mixture rapidly responded with a significant decrease of body temperature within 5 hours from 37.3 ± 0.2 °C to 27.9 ± 0.2 °C and a delta temperature of -9.3 ± 0.3 °C (p=0.0002) compared to vehicle (-1.9 ± 0.5 °C). Oral administration of RIPK1 inhibitor led to a dose dependent increase of delta body temperature (1 mg/kg: -8.8 ± 0.5 °C; 5 mg/kg: -7.6 ± 1.2 °C; 15 mg/kg: -3.4 ± 1.3 °C, p=0.0007 to Tnf-α/zVAD) (Fig. 4B)."}, "[5]": {"system": "lesional skin of LP patients", "test": "Human lesional skin biopsy cultures ex vivo, gene expression by qPCR", "type": "cell-based", "settings": "1 µM inhibitor, 4 h, LP skin biopsies (n=5), compared to autologous non-treated controls", "experimental": "6 mm punch biopsies of lesional skin of LP patients (n=5) were obtained under local anaesthesia. Biopsies were divided into two parts and treated with the RIPK1 inhibitor (1 µM, SANOFI) or without as untreated control sample for 4 h in T cell media (RPMI 1640 medium with 1 % human serum, 0.1 mM non-essential aminoacids, 2 mM L-Glutamine, 1 mM sodium pyruvate and 100 U/mL penicillin/streptomycin). After stimulation, biopsies were stored in RNALater® solution at -80 °C until RNA preparation. RNA was isolated using QIAzol Lysis Reagent (Qiagen) and miRNeasy Mini Kit (Qiagen) according to manufacturer's protocol. mRNA was transcribed into cDNA with Applied Biosytems High Capacity cDNA Reverse Transcription Kit (Thermo Fisher Scientific). Gene expression was measured on an Applied Biosystems ViiA7 Real-Time PCR system (Thermo Fisher Scientific) using Fast Start Universal SYBRGreen Master Rox (Roche). Primers were ordered from Metabion (http://www.metabion.com) and are listed in supplementary Table S5. Data are shown as relative gene expression to untreated sample using 2^-(ΔΔcT) method. Table S5. Primer sequences. Fw = forward. rv = reverse."}}}
{"smiles": "CN1C(=O)[C@@H](NC(=O)c2nnc(Cc3ccccc3)[nH]2)COc2cccnc21", "note": "[SAR443122, 5-Benzyl-N-[(3S)-5-methyl-4-oxo-2,3-dihydropyrido[3,2-b][1,4]oxazepin-3-yl]-4H-1,2,4-triazole-3-carboxamide]", "values": [{"measurement": "release of CCL20", "setting": "[1]", "value": "29.1 % ± 4.4"}, {"measurement": "release of II,-1RA", "setting": "[1]", "value": "48.9 % ± 18.0"}, {"measurement": "release of TNF-α", "setting": "[1]", "value": "70.3 % ± 6.3"}, {"measurement": "release of IL-8", "setting": "[1]; p=0.4757", "value": "79.8 % ± 9.6"}, {"measurement": "release of IL-1β", "setting": "[2]; IFN-γ + TNF-α + zVAD + SMAC, dose dependent, p=0.0050 for 100 nM, n=4", "value": "significantly diminished the release of IL-1β to basal levels"}, {"measurement": "IL-1α, IL-1RA, CXCL5, IL-8 (CXCL8), GM-CSF and CCL20", "setting": "[2]; secreted cytokines, 100 ng/ml IFN-γ + TNF-α + zVAD + SMAC, n=3", "value": "significant reduction"}, {"measurement": "epidermal architecture", "setting": "[3]", "value": "restored the normal epidermal architecture"}, {"measurement": "epidermal thickness", "setting": "[3]; stimulated control 102.0 ± 5.1, unstimulated 61.3 ± 5.4, p<0.0001", "value": "80.3 ± 5.1", "unit": "µm"}, {"measurement": "viability", "setting": "[4]", "value": "95.1 % ± 0.8"}, {"measurement": "RIPK1 autophosphorylation", "setting": "RIPK1", "value": "efficiently blocked"}, {"measurement": "delta body temperature", "setting": "C57BL/6 mice; 1 mg/kg oral", "value": "-8.8 ± 0.5", "unit": "°C"}, {"measurement": "delta body temperature", "setting": "C57BL/6 mice; 5 mg/kg oral", "value": "-7.6 ± 1.2", "unit": "°C"}, {"measurement": "delta body temperature", "setting": "C57BL/6 mice; 15 mg/kg oral, p=0.0007 to Tnf-α/zVAD", "value": "-3.4 ± 1.3", "unit": "°C"}, {"measurement": "downregulation of CCL3", "setting": "[5]", "value": 62, "unit": "%"}, {"measurement": "downregulation of CXCL9", "setting": "[5]", "value": 57, "unit": "%"}, {"measurement": "downregulation of CXCL10", "setting": "[5]", "value": 40, "unit": "%"}, {"measurement": "downregulation of CXCL11", "setting": "[5]", "value": 43, "unit": "%"}, {"measurement": "downregulation of IFNg", "setting": "[5]", "value": 60, "unit": "%"}, {"measurement": "downregulation of IL1RA", "setting": "[5]", "value": 65, "unit": "%"}, {"measurement": "downregulation of TNF", "setting": "[5]", "value": 60, "unit": "%"}]}
